Experimental data from the CheMixHub ionic liquid set.
± gives the uncertainty stated by the source.

Assay: xn = mol fraction of the nth substance listed

CC(=O)[O-].CCCCC[n+]1ccccc1 + O
101 kPa
Details	electrical conductivity [S/m]
293.15 K, x1 = 0.9144	0.00606 ± 0.00052
293.15 K, x1 = 0.9163	0.006 ± 0.00051
293.15 K, x1 = 0.9314	0.00537 ± 0.00048
293.15 K, x1 = 0.948	0.00491 ± 0.00034
293.15 K, x1 = 0.9673	0.00428 ± 0.00024
293.15 K, x2 = 0.002318	0.00338 ± 0.00011
298.15 K, x1 = 0.9163	0.0103 ± 0.0047
298.15 K, x1 = 0.9314	0.00935 ± 0.00095
298.15 K, x1 = 0.948	0.00808 ± 0.0007
298.15 K, x1 = 0.9673	0.00703 ± 0.00043
298.15 K, x2 = 0.002318	0.00533 ± 0.00017
303.15 K, x1 = 0.9314	0.0157 ± 0.0019
303.15 K, x2 = 0.002318	0.00815 ± 0.00026
308.15 K, x1 = 0.9163	0.025 ± 0.013
308.15 K, x1 = 0.9314	0.0221 ± 0.0027
313.15 K, x1 = 0.9163	0.0356 ± 0.0057
318.15 K, x1 = 0.9163	0.0509 ± 0.0046
318.15 K, x1 = 0.948	0.0396 ± 0.0029
318.15 K, x1 = 0.9673	0.0345 ± 0.002
318.15 K, x2 = 0.002318	0.0267 ± 0.00082
323.15 K, x1 = 0.9163	0.0695 ± 0.0021
323.15 K, x2 = 0.002318	0.0339 ± 0.001
328.15 K, x1 = 0.9314	0.081 ± 0.0089
333.15 K, x1 = 0.9144	0.13 ± 0.057
338.15 K, x1 = 0.9144	0.175 ± 0.045
338.15 K, x1 = 0.948	0.13 ± 0.012
343.15 K, x1 = 0.9314	0.193 ± 0.022

CC[n+]1ccn(C)c1.[Cl-] + O=C[C@H](O)[C@@H](O)[C@H](O)[C@H](O)CO + CC#N
373 K, 100 kPa
Details	viscosity [mPa·s]
x2 = 0, x1 = 0.359	3 ± 1
x2 = 0.002991, x1 = 0.3578	3 ± 1
x2 = 0.01533, x1 = 0.3535	4
x2 = 0.0316, x1 = 0.3476	5 ± 2
x2 = 0.04909, x1 = 0.3413	6 ± 2

CCOCC[n+]1ccn(C)c1.O=S(=O)([N-]S(=O)(=O)C(F)(F)F)C(F)(F)F + O
101 kPa, x1 = 0.8424
Details	viscosity [mPa·s]
283 K	68.1 ± 1.5
298.1 K	34 ± 0.8

CCCCCCCCCCCCCC[P+](CCCCCC)(CCCCCC)CCCCCC.[c-]1c[nH]nn1 + CCCCCCCCCCCCCC[P+](CCCCCC)(CCCCCC)CCCCCC.O=S(=O)([N-]S(=O)(=O)C(F)(F)F)C(F)(F)F
100 kPa
Details	viscosity [mPa·s]
288.15 K, x2 = 0.7	693 ± 90
293.15 K, x2 = 0.5	502 ± 64
293.15 K, x2 = 0.7	495 ± 63
303.15 K, x2 = 0.401	288 ± 36
303.15 K, x2 = 0.5	270 ± 34
303.15 K, x2 = 0.7	270 ± 34
308.15 K, x2 = 0.203	217 ± 27
308.15 K, x2 = 0.5	204 ± 25
308.15 K, x2 = 0.902	181 ± 22
